Test results taken from patent publication US8455421B2, “Compositions and methods for the removal of chewing gum residues from substrates” (Expelliere Int Ltd, priority 2008, dated 2013).

tested on: laccase from Trametes versicolor (LTV); experiment: Compatibility of laccase with ionic liquids (oxidation of catechol to 1,2-benzoquinone); format: biochemical; settings: laccase 25 mg/L, sodium phosphate-citrate buffer 25 mM, pH 4.5, 22° C., 405 nm
Source text: An important consideration in preparing ionic liquids comprising enzymes for use in the methods of the present invention is the activity of the enzyme in the presence of the ionic liquid. The compatibility of enzymes and ionic liquids can be easily determined by the skilled person by standard laboratory techniques. One suitable technique uses high throughput screening of ionic liquids and enzymes using multiple well plates. A standard enzyme-catalysed transformation may be used to analyse the activity of a particular enzyme in the presence of various ionic liquids at various concentrations. One suitable reaction is the oxidation of catechol to 1,2-benzoquinone. The progress of this reaction can be monitored visually by the dark colour of 1,2-benzoquinone and spectrally, for instance using UV-Vis spectrometry. This transformation can be represented by the following reaction scheme, in which laccase is exemplified:
Compatibility of enzymes with ionic liquid compositions was determined by high throughput screening on multiple well plates of various enzymes against various concentrations of ionic liquids in water. The oxidation of catechol to 1,2-benzoquinone was measured in aqueous sodium phosphate-citrate buffer solutions (25 mM) containing laccase (25 mgL^−1) and an ionic liquid, premixed at pH 6.0 for laccase from Agaricus bisporus (LAB) and at pH 4.5 for laccase from Trametes versicolor (LTV). The pH was verified by diluting the final reaction mixture in deionised water and measuring the pH using a pH meter. The rate of 1,2-benzoquinone formation was measured using an Agilent spectrophotometer at 405 nm and 22° C. using an extinction coefficient of 760 M^−1 cm^−1. The activity was measured over a range of ionic liquid concentrations from 0 to 99.4%, since the laccases were not soluble in the pure ionic liquids, but could be dissolved when the ionic liquids were mixed with 0.6% of buffer solution containing the enzyme.

Row | SMILES | Concentration of ionic liquid in water that inactivates Laccase (LTV) [%]
1 | CCOS(=O)(=O)[O-].C[N+](C)(C)CCCO [[N1,1,1,3OH]^+[EtOSO3]^−] | 30
2 | CCOS(=O)(=O)[O-].CC[N+](C)(C)CCO [[N2,1,1,2OH]^+[EtOSO3]^−] | 30
3 | CCCC[N+](C)(C)CC.CCOS(=O)(=O)[O-] [[N4,2,1,1]^+[EtOSO3]^−] | 70
4 | CCCCCCCC[N+](C)(C)CCCC.O=[N+]([O-])[O-] [[N8,4,1,1]^+[NO3]^−] | 90
5 | CCCCC(CC)COC(=O)CC(C(=O)OCC(CC)CCCC)S(=O)(=O)[O-].CCCCn1cc[n+](C)c1 (stereo not drawn) [[bmim][docusate], 1-methyl-3-butylimidazolium docusate] | 90
6 | CC(O)C(=O)[O-].CCCCn1cc[n+](C)c1 [[bmim]^+[CH3CH(OH)CO2]^−] | 90
7 | CCCCC(CC)COC(=O)CC(C(=O)OCC(CC)CCCC)S(=O)(=O)[O-].CCCC[N+]1(C)CCCC1 (stereo not drawn) [[bmpyr]^+[docusate]^−] | 90
8 | CCCCC(CC)COC(=O)CC(C(=O)OCC(CC)CCCC)S(=O)(=O)[O-].CCn1cc[n+](C)c1 (stereo not drawn) [[emim][docusate]] | 90
9 | CCOS(=O)(=O)[O-].CCn1cc[n+](C)c1 [[emim]^+[EtOSO3]^−] | 30
